The values that follow are results of earlier work, collected in patent publication US10160778B2, “Pyrimidine phosphonic acid esters” (Concert Pharmaceuticals, Inc., priority 2014, dated 2018).

The conditions of this data set: phase II study for the prevention of cytomegalovirus infection.

Take `CCCCCCCCCCCCCCCCOCCCOP(=O)(O)CO[C@H](CO)Cn1ccc(N)nc1=O` [brincidofovir, 3-(hexadecyloxy)propyl hydrogen ((((S)-1-(4-amino-2-oxopyrimidin-1 (2H)-yl)-3-hydroxypropan-2-yl)oxy)methyl)phosphonate]: the dose-limiting side effect entry was “diarrhea”.
